Test results: US20030215788A1, “Cysteine thiol-protected peptides for use in immunoassays” (priority 1989, published 2003)
“Also recorded” adds a separate entry of the source. Like-named read-outs stand apart in the source and are kept apart here.

Key:
Antibodies to HIV-1 [1] = type: binding, human
Procedure: The subject peptide compositions were immobilized onto latex beads and entrapped on a microporous membrane atop an absorbent material for the determination and/or quantitation of antibodies to HIV. Examples of such immunoassay apparatus and methods are the subject of U.S. Pat. Nos. 4,633,901 and 4,727,019, both incorporated herein by reference. The membrane concentration immunoassay involves three incubations comprising a total assay time of 10 minutes. Peptides tested were adsorbed to latex beads by the methods described above.
Each sample was tested on a filtration unit comprising three spots on a 1.2 μm pore size nylon membrane. One spot comprising the test peptide/latex bead preparation, one spot comprising a positive procedural control and the other comprising a negative procedural control.
The peptide/latex bead preparation was suspended in 0.1M Tris buffer, pH 7.2, 0.15M NaCl, 0.01M MgCl2, 10% sucrose, 2% fetal calf serum. Membranes were spotted with a 0.1-0.2% suspension of peptide/bead preparation. Negative procedural control spots were comprised of latex beads coated by adsorption with BSA. While positive procedural control spots were comprised of latex beads coated by adsorption with goat antihuman immunoglobulins.
Serum or plasma samples (40 μl) were diluted 1:10 in dilution buffer (10% heat inactivated normal goat serum, 1% dextran sulfate, 0.2% Tween 20, 2.5% nonfat dry milk, 15 ppm Kathon CG, 0.005% antifoam A, in 20 mM sodium citrate buffer, pH 7.4). Diluted specimen was added to the surface of the membrane and allowed to absorb completely. After waiting 2 min. from the time of specimen addition, 1 ml of wash buffer (0.01M Tris-buffered saline, pH 6.0, 0.05M NaCl, 0.005M MgCl2, 0.1% sodium azide, 10 μg/ml nitro blue tetrazolium, 0.5M potassium thiocyanate) was added and allowed to completely absorb through the membrane. About 0.150 ml (3 drops) of goat anti-human Ig-alkaline phosphatase conjugate diluted in 10 mM phosphate buffered saline, pH 7.4, 0.2% goat gamma globulin, 1% bovine serum albumin, 1 mM MgCl2, 0.1 mM ZnCl2 was added to the membrane and allowed to absorb completely. The membrane was washed twice as above (2 ml) and about 0.150 ml (3 drops) of substrate (1M 2-amino-2-methyl-1-propanol, pH 10.3, 5 mg/ml 3-indoxyl phosphate) was added and allowed to absorb completely. After about 5 min. about 1 ml of 0.5M EDTA, pH 7.4, was passed through the membrane to stop the reaction. After the stop solution was completely absorbed the units were read visually or semi-quantitatively by reflectance.

Antibodies to HIV-1 [2] = type: binding, human; remark: listed apart in the source
Procedure: Alternative methods of testing immunologic cross-reactivity were also used. In one such method L5 Peptides 39 and 39GC were tested by ELISA as previously described in U.S. Pat. No. 4,629,783. Briefly, stock solutions of peptides 39 and 39-GC were prepared in 6M Gu-HCl. Working dilutions of 20 µg/ml and 6 μg/ml respectively were prepared by dilution of stock solution 0 with 0.05M carbonate/bicarbonate buffer, pH 9.5. Wells of microtiter plates were filled with 100 μl of the working dilution of the peptides and allowed to stand overnight at room temperature. Coating solution was removed and 300 μl of blocking solution supra containing 0.5M ethanolamine was added for 1 hr. at room temperature. Blocking solution was removed and the plates were used immediately or allowed to dry and stored for later use.
Plasma samples were diluted (See Table 1) in sample dilution buffer (above) and 100 μl was added to individual wells. Samples were incubated for 30 min. at 37° C., then removed and the wells were washed six times with 0.15M NaCl, 0.05% Tween 20. One hundred microliters of goat antihuman Ig-horseradish peroxidase conjugate diluted in citrate buffer, pH 7.0, 1% normal goat serum was added to each well for 30 min at 37° C. prior to washing six times as above. The ELISA assay was developed by adding 100 μl/well of substrate solution (80 μg/ml tetramethyl benzidine, 0.0015% hydrogen peroxide in citrate/phosphate buffer, pH 6.0) for 30 min. at room temperature. Reactions were stopped with the addition of 100 μl of H2SO4 per well, and the ratio of the optical density at 450 nm to 630 nm was determined by an automated ELISA reader. The cutoff value for a positive result was set at 0.225 Absorbance Units above the average absorbance obtained for three known negative samples.

## Cys-Gly-Gly-Arg-Ile-Leu-Ala-Val-Glu-Arg-Tyr-Leu-Lys-Asp-Gln-Gln-Leu-Leu-Gly-Ile-Trp-Gly-Cys*-Ser-Gly-Lys-Leu-Ile-Cys*-NH2 [Peptide 39GC]
Antibodies to HIV-1 [1]; Autoimmune Samples
  No. Positive/Total No.: 0/51
Antibodies to HIV-1 [1]; Normal Blood Bank Donors
  No. Positive/Total No.: 0/1187
Antibodies to HIV-1 [1]; Problematic HIV-I Seronegative Samples
  No. Positive/Total No.: 0/72
Antibodies to HIV-1 [1]; Secondary, Atypical Syphillis Sera/HIV Neg.
  No. Positive/Total No.: 0/26
Antibodies to HIV-1 [1]; Secondary, Atypical Syphillis Sera/HIV Pos.
  No. Positive/Total No.: 4/4
Antibodies to HIV-1 [1]; Western Blot Neg./LAV-EIA Pos.
  No. Positive/Total No.: 0/79
Antibodies to HIV-1 [1]; Western Blot Pos./LAV-EIA Pos. (OD < 1.5)
  No. Positive/Total No.: 120/120
Antibodies to HIV-1 [1]; Western Blot Pos./LAV-EIA Pos. (OD > 1.5)
  No. Positive/Total No.: 29/29
Antibodies to HIV-1 [1]; Western Blot p25 Neg./LAV/EIA Pos. (Atypical 1)
  No. Positive/Total No.: 0/39
Antibodies to HIV-1 [1]; Western Blot p25 Pos./LAV-EIA Pos. (Atypical 2)
  No. Positive/Total No.: 0/170
Antibodies to HIV-1 [2]; PlasmaG (1:40)
  Diagnosis by ELISA: Pos/Pos
  ELISA optical density (450 nm/630 nm): 0.895
Antibodies to HIV-1 [2]; PlasmaG (1:80)
  Diagnosis by ELISA: Pos
  ELISA optical density (450 nm/630 nm): 0.820
Antibodies to HIV-1 [2]; PlasmaG (1:160)
  Diagnosis by ELISA: Pos
  ELISA optical density (450 nm/630 nm): 0.575
Antibodies to HIV-1 [2]; PlasmaG (1:320)
  Diagnosis by ELISA: Neg/Neg
  ELISA optical density (450 nm/630 nm): 0.349
Antibodies to HIV-1 [2]; PlasmaG (1:640)
  Diagnosis by ELISA: Neg/Neg
  ELISA optical density (450 nm/630 nm): 0.179
Antibodies to HIV-1 [2]; PlasmaG (1:1280)
  Diagnosis by ELISA: Neg/Neg
  ELISA optical density (450 nm/630 nm): 0.107
Antibodies to HIV-1 [2]; PlasmaO (1:40)
  Diagnosis by ELISA: Pos/Pos
  ELISA optical density (450 nm/630 nm): 1.439
Antibodies to HIV-1 [2]; PlasmaO (1:80)
  Diagnosis by ELISA: Pos/Pos
  ELISA optical density (450 nm/630 nm): 1.010
Antibodies to HIV-1 [2]; PlasmaO (1:160)
  Diagnosis by ELISA: Pos/Pos
  ELISA optical density (450 nm/630 nm): 0.742
Antibodies to HIV-1 [2]; PlasmaO (1:320)
  Diagnosis by ELISA: Pos
  ELISA optical density (450 nm/630 nm): 0.397
Antibodies to HIV-1 [2]; PlasmaO (1:640)
  Diagnosis by ELISA: Neg/Neg
  ELISA optical density (450 nm/630 nm): 0.279
Antibodies to HIV-1 [2]; PlasmaO (1:1280)
  Diagnosis by ELISA: Neg/Neg
  ELISA optical density (450 nm/630 nm): 0.165
Antibodies to HIV-1 [2]; plasma dilution panel, Table 1
  dilution giving a positive result, compared with Peptide 39: positive result at a higher dilution than Peptide 39
Antibodies to HIV-1 [2]; seroconversion panel sample BBI-1
  ELISA optical density: 0.347
Antibodies to HIV-1 [2]; seroconversion panel sample BBI-2
  ELISA optical density: 0.317
Antibodies to HIV-1 [2]; seroconversion panel sample BBI-3
  ELISA optical density: 0.842
Antibodies to HIV-1 [2]; seroconversion panel sample BBI-4
  ELISA optical density: 1.105
Antibodies to HIV-1 [2]; seroconversion panel sample BBI-5
  ELISA optical density: 1.757
Antibodies to HIV-1 [2]; seroconversion panel sample BBI-6
  ELISA optical density: 2.160
Antibodies to HIV-1 [2]; seroconversion panel sample BBI-7
  ELISA optical density: 1.986
Antibodies to HIV-1 [2]; seroconversion panel sample BBI-8
  ELISA optical density: 2.317
Antibodies to HIV-1 [2]; seroconversion panel sample BBI-9
  ELISA optical density: 2.328
Antibodies to HIV-1 [2]; seroconversion panel sample BBI-20
  ELISA optical density: 0.136
Antibodies to HIV-1 [2]; seroconversion panel sample BBI-21
  ELISA optical density: 0.158
Antibodies to HIV-1 [2]; seroconversion panel sample BBI-22
  ELISA optical density: 0.450
Antibodies to HIV-1 [2]; seroconversion panel sample BBI-23
  ELISA optical density: 0.890
Antibodies to HIV-1 [2]; seroconversion panel sample BBI-24
  ELISA optical density: 1.064
Antibodies to HIV-1 [2]; seroconversion panel sample BBI-25
  ELISA optical density: 0.845
Antibodies to HIV-1 [2]; seroconversion panel sample BBI-26
  ELISA optical density: 0.852
Antibodies to HIV-1 [2]; seroconversion panel sample BBI-27
  ELISA optical density: 1.104
Antibodies to HIV-1 [2]; seroconversion panel sample BBI-28
  ELISA optical density: 1.177
Antibodies to HIV-1 [2]; seroconversion panel sample BBI-29
  ELISA optical density: 2.085
Antibodies to HIV-1 [2]; seroconversion panel sample BBI-30
  ELISA optical density: 2.214
Antibodies to HIV-1 [2]; seroconversion panel sample BBI-31
  ELISA optical density: 2.207
Antibodies to HIV-1 [2]; seroconversion panel sample BBI-32
  ELISA optical density: 2.263
Antibodies to HIV-1 [2]; seroconversion panel sample BBI-33
  ELISA optical density: 2.277
Antibodies to HIV-1 [2]; seroconversion panel sample BBI-34
  ELISA optical density: 1.622
Antibodies to HIV-1 [2]; seroconversion panel sample BBI-35
  ELISA optical density: 2.198
Antibodies to HIV-1 [2]; seroconversion panel sample BBI-36
  ELISA optical density: 2.265
Antibodies to HIV-1 [2]; seroconversion panel sample BBI-37
  ELISA optical density: 2.105
Antibodies to HIV-1 [2]; two seroconversion panels, Table 4
  time of first positive result on seroconversion panels: positive result earlier than whole virus ELISA; also recorded: positive result earlier than peptide 39 on one of the seroconversion panels
